Experimental data as given in patent US20020137929A1, “1 - (3-heterocyclylphenyl) isothiourea, -isourea, -guanidine and -amidine herbicidal agents” (Intellectual Property Department, BASF Aktiengesellschaft, priority 1998, published 2002).

Legend:
[1] = system: IPOHE (Morningglory, Ivyleaf); assay: Preemergence herbicidal evaluation; type: in vivo, Ipomoea hederacea; settings: rated 4-5 weeks after treatment
Method in brief: (§1)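 Preemergence soil application of compound, sprayed in aqueous acetone at rates equivalent to about 0.0156 to 0.500 kg per hectare onto freshly sown cups. Plant response was judged by eye on a 0-9 scale four to five weeks later.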

GALAP (Galium) = assay: Postemergence herbicidal evaluation; type: in vivo, Galium aparine; settings: postemergence
Method in brief: (§2)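 Two-week seedlings sprayed postemergence at 40 psi; formulation: 1:1 acetone/water, 0.5% TWEEN 20; application ≈0.0156–0.500 kg/ha. Greenhouse grow-out, then 0–9 visual scoring at 4–5 weeks.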

[2] = system: ECHORC (Watergrass (Calif.)); assay: Preemergence weed control under flooded paddy conditions; type: in vivo, Echinochloa oryzoides; settings: rated 3-4 weeks after treatment
Method in brief: (§3)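 Silt loam, seeds in top 0.5 cm; flood held 1.5-3 cm; test cpd as acetone/water 50/50 into flood water, ~0.0313-0.500 kg/ha a.i.; greenhouse 3-4 wk; visual 0-9 score vs control.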

SETVI (Foxtail, Green) [3] = assay: Postemergence herbicidal evaluation; type: in vivo, Setaria viridis; settings: postemergence
Method in brief: as §2

CYPIR (Rice Flatsedge) = assay: Preemergence weed control under flooded paddy conditions; type: in vivo, Cyperus iria; settings: rated 3-4 weeks after treatment
Method in brief: as §3

[4] = system: IPOHE (Morningglory, Ivyleaf); assay: Postemergence herbicidal evaluation; type: in vivo, Ipomoea hederacea; settings: postemergence
Method in brief: as §2

MOOVA (Monochoria) = assay: Preemergence weed control under flooded paddy conditions; type: in vivo, Monochoria vaginalis; settings: rated 3-4 weeks after treatment
Method in brief: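 Seeds or propagules sown in top 0.5 cm of silt loam soil, flooded 1.5 to 3 cm above surface throughout. Compound in 50/50 v/v aqueous/acetone pipetted into flood water at about 0.0313 to 0.500 kg/ha. Visual 0-9 rating versus control after three to four weeks in greenhouse.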

ECHCG (Barnyardgrass) = assay: Preemergence herbicidal evaluation; type: in vivo, Echinochloa crus-galli; settings: rated 4-5 weeks after treatment
Method in brief: as §1

ZEAMX (Corn, Field) = assay: Preemergence herbicidal evaluation; type: in vivo, Zea mays; settings: rated 4-5 weeks after treatment
Method in brief: as §1

SETVI (Foxtail, Green) [5] = assay: Preemergence herbicidal evaluation; type: in vivo, Setaria viridis; settings: rated 4-5 weeks after treatment
Method in brief: as §1

[6] = system: TRZAWR (Wheat, Winter, cv Riband); assay: Postemergence herbicidal evaluation; type: in vivo, Triticum aestivum; settings: postemergence
Method in brief: as §2

ABUTH (Velvetleaf) = assay: Preemergence herbicidal evaluation; type: in vivo, Abutilon theophrasti; settings: rated 4-5 weeks after treatment
Method in brief: as §1

CC(C)OC(=O)CN1C(=O)CSC1=Nc1cc(-n2c(=O)cc(C(F)(F)F)n(C)c2=O)c(F)cc1Cl [Compound 110] was tested, and the “Preemergence herbicidal rating IPOHE” value ([1]; rate 0.0156 kg/ha) was 3.5, the “Preemergence herbicidal rating IPOHE” value ([1]; rate 0.0313 kg/ha) was 4.5 and the “Preemergence herbicidal rating IPOHE” value ([1]; rate 0.0625 kg/ha) was 5.5. The “Preemergence herbicidal rating IPOHE” value ([1]; rate 0.1250 kg/ha) was 9.0, the “Preemergence herbicidal rating IPOHE” value ([1]; rate 0.2500 kg/ha) was 9.0 and the “Preemergence herbicidal rating IPOHE” value ([1]; rate 0.5000 kg/ha) was 9.0. The “Herbicidal rating GALAP” value (GALAP (Galium); rate 0.0158 kg/ha) was 1.0, the “Herbicidal rating GALAP” value (GALAP (Galium); rate 0.0315 kg/ha) was 3.0 and the “Herbicidal rating GALAP” value (GALAP (Galium); rate 0.0630 kg/ha) was 4.0. The “ECHORC herbicidal effect rating” value ([2]; 0.0313 kg/ha) was 7.0, the “ECHORC herbicidal effect rating” value ([2]; 0.0625 kg/ha) was 7.0 and the “ECHORC herbicidal effect rating” value ([2]; 0.1250 kg/ha) was 7.0. For the same compound, the “ECHORC herbicidal effect rating” value ([2]; 0.2500 kg/ha) was 9.0, the “Herbicidal rating SETVI” value (SETVI (Foxtail, Green) [3]; rate 0.0158 kg/ha) was 1.0 and the “Herbicidal rating SETVI” value (SETVI (Foxtail, Green) [3]; rate 0.0315 kg/ha) was 9.0. For the same compound, the “Herbicidal rating SETVI” value (SETVI (Foxtail, Green) [3]; rate 0.0630 kg/ha) was 9.0, the “CYPIR herbicidal effect rating” value (CYPIR (Rice Flatsedge); 0.0313 kg/ha) was 3.0 and the “CYPIR herbicidal effect rating” value (CYPIR (Rice Flatsedge); 0.0625 kg/ha) was 4.0. For the same compound, the “CYPIR herbicidal effect rating” value (CYPIR (Rice Flatsedge); 0.1250 kg/ha) was 7.0, the “CYPIR herbicidal effect rating” value (CYPIR (Rice Flatsedge); 0.2500 kg/ha) was 8.0 and the “Herbicidal rating IPOHE” value ([4]; rate 0.0158 kg/ha) was 9.0. The “Herbicidal rating IPOHE” value ([4]; rate 0.0315 kg/ha) was 9.0, the “Herbicidal rating IPOHE” value ([4]; rate 0.0630 kg/ha) was 9.0 and the “MOOVA herbicidal effect rating” value (MOOVA (Monochoria); 0.0313 kg/ha) was 9.0. For the same compound, the “MOOVA herbicidal effect rating” value (MOOVA (Monochoria); 0.0625 kg/ha) was 9.0, the “MOOVA herbicidal effect rating” value (MOOVA (Monochoria); 0.1250 kg/ha) was 9.0 and the “MOOVA herbicidal effect rating” value (MOOVA (Monochoria); 0.2500 kg/ha) was 9.0. For the same compound, the “Preemergence herbicidal rating ECHCG” value (ECHCG (Barnyardgrass); rate 0.0156 kg/ha) was 0.0, the “Preemergence herbicidal rating ECHCG” value (ECHCG (Barnyardgrass); rate 0.0313 kg/ha) was 0.0 and the “Preemergence herbicidal rating ECHCG” value (ECHCG (Barnyardgrass); rate 0.0625 kg/ha) was 0.5. For the same compound, the “Preemergence herbicidal rating ECHCG” value (ECHCG (Barnyardgrass); rate 0.1250 kg/ha) was 2.0, the “Preemergence herbicidal rating ECHCG” value (ECHCG (Barnyardgrass); rate 0.2500 kg/ha) was 3.0 and the “Preemergence herbicidal rating ECHCG” value (ECHCG (Barnyardgrass); rate 0.5000 kg/ha) was 4.0. The “Preemergence herbicidal rating ZEAMX” value (ZEAMX (Corn, Field); rate 0.0156 kg/ha) was 0.0, the “Preemergence herbicidal rating ZEAMX” value (ZEAMX (Corn, Field); rate 0.0313 kg/ha) was 0.5 and the “Preemergence herbicidal rating ZEAMX” value (ZEAMX (Corn, Field); rate 0.0625 kg/ha) was 1.0. The “Preemergence herbicidal rating ZEAMX” value (ZEAMX (Corn, Field); rate 0.1250 kg/ha) was 2.5, the “Preemergence herbicidal rating ZEAMX” value (ZEAMX (Corn, Field); rate 0.2500 kg/ha) was 3.5 and the “Preemergence herbicidal rating ZEAMX” value (ZEAMX (Corn, Field); rate 0.5000 kg/ha) was 4.0. For the same compound, the “Preemergence herbicidal rating SETVI” value (SETVI (Foxtail, Green) [5]; rate 0.0156 kg/ha) was 1.5, the “Preemergence herbicidal rating SETVI” value (SETVI (Foxtail, Green) [5]; rate 0.0313 kg/ha) was 2.5 and the “Preemergence herbicidal rating SETVI” value (SETVI (Foxtail, Green) [5]; rate 0.0625 kg/ha) was 5.0. For the same compound, the “Preemergence herbicidal rating SETVI” value (SETVI (Foxtail, Green) [5]; rate 0.1250 kg/ha) was 8.0, the “Preemergence herbicidal rating SETVI” value (SETVI (Foxtail, Green) [5]; rate 0.2500 kg/ha) was 9.0 and the “Preemergence herbicidal rating SETVI” value (SETVI (Foxtail, Green) [5]; rate 0.5000 kg/ha) was 9.0. The “Herbicidal rating TRZAWR” value ([6]; rate 0.0158 kg/ha) was 2.5, the “Herbicidal rating TRZAWR” value ([6]; rate 0.0315 kg/ha) was 3.5 and the “Herbicidal rating TRZAWR” value ([6]; rate 0.0630 kg/ha) was 4.0. For the same compound, the “Preemergence herbicidal rating ABUTH” value (ABUTH (Velvetleaf); rate 0.0156 kg/ha) was 5.5, the “Preemergence herbicidal rating ABUTH” value (ABUTH (Velvetleaf); rate 0.0313 kg/ha) was 9.0 and the “Preemergence herbicidal rating ABUTH” value (ABUTH (Velvetleaf); rate 0.0625 kg/ha) was 9.0. The “Preemergence herbicidal rating ABUTH” value (ABUTH (Velvetleaf); rate 0.1250 kg/ha) was 9.0, the “Preemergence herbicidal rating ABUTH” value (ABUTH (Velvetleaf); rate 0.2500 kg/ha) was 9.0 and the “Preemergence herbicidal rating ABUTH” value (ABUTH (Velvetleaf); rate 0.5000 kg/ha) was 9.0.
